Source: patent US8772252B2, “Coumarin compounds as melanogenesis modifiers and uses thereof” (New York University, priority 2011, dated 2014)

Tested on: cultured murine melanocytes (melan-a)
Assay: Melanin assay in cultured murine melanocytes (melan-a) screened with library compounds
Format: cell-based
Conditions: melan-a cells, 72 hours of incubation
Procedure: The Spectrum Collection library consisting of 2000 drug compounds or natural products represents a source for the identification of compounds useful in the present invention. The library may be screened to identify novel pigmentation inhibitors in cultured murine melanocytes (melan-a). Compounds are dissolved in dimethylsulfoxide (DMSO) to a final concentration of 10 mM. Screening is performed with cultured melanocytes in 24-well plates followed by melanin assay (see below). A minimum change of 50% in melanin formation is established as significant for a pigmentation inhibitor. DMSO may be used as a negative control and the widely used depigmenting agent, hydroquinone, may be used as a positive control on every plate. Primary screening is performed at a final concentration of 1 μM and potential candidates from the primary screening are reconfirmed in duplicate at final concentrations of 1 and 5 μM.
Melan-a cells are plated at 5×10^4 cells per well in 1 ml of culture media in 24-well plates the day before adding the library compounds. All compounds are added at the indicated final concentrations. Cells are harvested after 72 hours of incubation, and the melanin assay is performed.
For further test and mechanism of action studies, the compounds may be purchased from Sigma, MicroSource or other known suppliers. The compounds are dissolved in dimethylsulfoxide (DMSO) to a final concentration of 10 mM, and are tested for their effect on melanin synthesis at the indicated final concentrations.
For the primary and secondary screening, cells were harvested and dissolved in 200 μl of 2N NaOH in 20% DMSO at 70° C. A 180-μl aliquot of the resulting solution was measured for absorbance at 490 nm.
Cells are harvested in extraction buffer (1% Triton X-100, 50 mM Tris, 2 mM EDTA, 150 mM NaCl, pH 7.5) containing a complete protease inhibitor cocktail (Roche). The lysates were centrifuged at 14,000 rpm for 10 minutes at 4° C. BCA protein assay kit (Pierce) was used to measure the protein concentrations of the supernatants, and bovine serum albumin was used as a standard. The remaining pellets were incubated with 100 μl ethanol-ether (1:1) for 10 minutes at room temperature. After removing the ethanol-ether, the pellets were dissolved in 200 μl of 2N NaOH in 20% DMSO at 70° C. A 180-μl aliquot of the resulting solution was measured for absorbance at 490 nm. The melanin contents were normalized to the total amount of protein.

CC(C)(OC(=O)c1ccccc1)[C@@H]1Cc2cc3ccc(=O)oc3cc2O1 [compound 36]
activity at 1 µM (Mus musculus, Melan-a, 72 h, 1 μM, read-out: % of control melanin remaining after treatment @ 1 μM): 81% | activity at 5 µM (Mus musculus, Melan-a, 72 h, 5 μM, read-out: % of control melanin remaining after treatment @ 5 μM): 87%

COc1c(C(C)C)oc2cc3oc(=O)ccc3cc12 [compound 40]
% of control melanin remaining after treatment @ 1 μM (1 μM): 97% | % of control melanin remaining after treatment @ 5 μM (5 μM): 88%
